Legend:
mMC3R = mMC3R (Mus musculus, UniProt P33033); assay: cAMP-based β-galactosidase reporter agonist assay in HEK293 cells, mMC3R; conditions: for mMC3R fold difference: EC50 of substituted peptide divided by EC50 of NDP-MSH, potency loss
rMC3R = conditions: HEK293 cells expressing the rMC3R; relative to α-MSH; cited from earlier work
mMC1R [1] = molecular target: T1, mMC1R (Mus musculus, UniProt Q01727); assay: cAMP-based β-galactosidase reporter agonist assay in HEK293 cells, mMC1R; conditions: potency loss
mMC5R = mMC5R (Mus musculus, UniProt P41149); assay: cAMP-based β-galactosidase reporter agonist assay in HEK293 cells, mMC5R; conditions: potency loss
mMC4R = mMC4R (Mus musculus, UniProt P56450); assay: cAMP-based β-galactosidase reporter agonist assay in HEK293 cells, mMC4R; conditions: potency loss
mMC1R [2] = molecular target: T1, mMC1R; conditions: B16 murine melanoma cells; relative to α-MSH; cited from earlier work
mMC1R [3] = molecular target: T1, mMC1R; conditions: B16 murine melanoma cells; relative to α-MSH; cited from earlier work; remark: listed apart in the source
[4] = EC50 of substituted peptide divided by EC50 of α-MSH
[5] = EC50 of substituted peptide divided by EC50 of NDP-MSH

T1 sequence (Q01727 whole entry): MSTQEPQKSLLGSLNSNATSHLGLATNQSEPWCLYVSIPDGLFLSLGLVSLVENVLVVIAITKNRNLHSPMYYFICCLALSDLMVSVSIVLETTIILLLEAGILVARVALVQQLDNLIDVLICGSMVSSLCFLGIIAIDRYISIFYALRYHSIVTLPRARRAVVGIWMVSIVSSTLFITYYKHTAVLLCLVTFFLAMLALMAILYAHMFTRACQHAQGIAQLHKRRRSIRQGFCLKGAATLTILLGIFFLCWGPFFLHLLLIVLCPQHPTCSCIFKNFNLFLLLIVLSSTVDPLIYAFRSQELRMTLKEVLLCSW
Chain of mMC3R (P33033 whole entry): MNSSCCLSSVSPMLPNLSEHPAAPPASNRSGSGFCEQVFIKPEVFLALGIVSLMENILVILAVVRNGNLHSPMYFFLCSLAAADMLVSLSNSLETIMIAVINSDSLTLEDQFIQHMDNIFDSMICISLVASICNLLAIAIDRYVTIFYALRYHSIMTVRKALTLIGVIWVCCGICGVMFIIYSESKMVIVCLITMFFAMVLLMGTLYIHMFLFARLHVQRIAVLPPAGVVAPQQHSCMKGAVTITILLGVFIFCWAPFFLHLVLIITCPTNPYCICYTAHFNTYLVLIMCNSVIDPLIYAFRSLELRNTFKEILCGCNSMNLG
Chain of mMC4R (P56450 whole entry): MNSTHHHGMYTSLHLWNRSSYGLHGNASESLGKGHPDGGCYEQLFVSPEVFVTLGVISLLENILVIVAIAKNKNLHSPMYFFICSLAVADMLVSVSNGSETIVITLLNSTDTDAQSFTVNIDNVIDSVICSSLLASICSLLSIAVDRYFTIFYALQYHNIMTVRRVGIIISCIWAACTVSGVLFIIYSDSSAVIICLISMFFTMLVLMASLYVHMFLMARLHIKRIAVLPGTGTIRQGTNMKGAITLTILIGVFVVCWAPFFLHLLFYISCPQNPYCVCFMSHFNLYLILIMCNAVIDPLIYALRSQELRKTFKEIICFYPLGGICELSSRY
Chain of mMC5R (P41149 whole entry): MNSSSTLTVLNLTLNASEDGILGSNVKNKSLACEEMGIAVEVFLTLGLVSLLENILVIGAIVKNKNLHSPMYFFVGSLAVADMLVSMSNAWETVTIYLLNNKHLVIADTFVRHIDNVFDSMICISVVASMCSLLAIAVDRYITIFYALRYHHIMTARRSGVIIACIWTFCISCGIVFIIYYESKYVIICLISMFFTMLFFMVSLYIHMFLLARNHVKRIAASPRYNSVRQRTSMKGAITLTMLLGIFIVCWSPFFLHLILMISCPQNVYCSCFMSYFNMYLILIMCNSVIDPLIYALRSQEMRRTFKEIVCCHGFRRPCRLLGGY

Row | SMILES | EC50 (mMC3R) | mMC1R fold difference (mMC1R [1]; [5]) | mMC5R fold difference (mMC5R; [5]) | mMC4R fold difference (mMC4R; [5]) | mMC3R fold difference (mMC3R) | other results
1 | CSCC[C@H](NC(=O)[C@H](CO)NC(=O)[C@H](Cc1ccc(O)cc1)NC(=O)[C@H](C)NC(C)=O)C(=O)N[C@@H](CCC(=O)O)C(=O)N[C@@H](Cc1c[nH]cn1)C(=O)N[C@@H](Cc1ccccc1)C(=O)N[C@@H](CCCNC(=N)N)C(=O)N[C@@H](Cc1c[nH]c2ccccc12)C(=O)NCC(=O)N[C@@H](CCCCN)C(=O)N1CCC[C@H]1C(=O)N[C@H](C(N)=O)C(C)C [[Ala^1]α-MSH] | 17.4 ± 10.4 nM |  |  |  |  | fold decreased binding affinity at the rMC3R (rMC3R): did not affect; mMC1R fold difference (mMC1R [1]; [4]): 5 fold; mMC5R fold difference (mMC5R; [4]): no differences; mMC4R fold difference (mMC4R; [4]): no differences; fold decreased tyrosinase potency at the mMC1R (mMC1R [2]): did not affect; fold decreased binding affinity at the mMC1R (mMC1R [3]): did not affect
2 | CSCC[C@H](NC(=O)[C@H](CO)NC(=O)[C@H](C)NC(=O)[C@H](CO)NC(C)=O)C(=O)N[C@@H](CCC(=O)O)C(=O)N[C@@H](Cc1c[nH]cn1)C(=O)N[C@@H](Cc1ccccc1)C(=O)N[C@@H](CCCNC(=N)N)C(=O)N[C@@H](Cc1c[nH]c2ccccc12)C(=O)NCC(=O)N[C@@H](CCCCN)C(=O)N1CCC[C@H]1C(=O)N[C@H](C(N)=O)C(C)C [[Ala^2]α-MSH] | 6.42 ± 2.56 nM |  |  |  |  | fold decreased binding affinity at the rMC3R (rMC3R): 7 fold; mMC1R fold difference (mMC1R [1]; [4]): 7 fold; fold decreased tyrosinase potency at the mMC1R (mMC1R [2]): equipotent; fold decreased binding affinity at the mMC1R (mMC1R [3]): equipotent; fold more potent at the mMC3R compared to α-MSH (mMC3R; increased potency relative to α-MSH): 4 fold
3 | CC(=O)N[C@@H](CO)C(=O)N[C@@H](Cc1ccc(O)cc1)C(=O)N[C@@H](CO)C(=O)N[C@@H](C)C(=O)N[C@@H](CCC(=O)O)C(=O)N[C@@H](Cc1c[nH]cn1)C(=O)N[C@H](Cc1ccccc1)C(=O)N[C@@H](CCCNC(=N)N)C(=O)N[C@@H](Cc1c[nH]c2ccccc12)C(=O)NCC(=O)N[C@@H](CCCCN)C(=O)N1CCC[C@H]1C(=O)N[C@H](C(N)=O)C(C)C [[Ala^4]NDP-MSH, Ac-Ser-Tyr-Ser-Ala-Glu-His-DPhe-Arg-Trp-Gly-Lys-Pro-Val-NH2] | 0.36 ± 0.04 nM | 5 fold | no differences | no differences | no differences | 
4 | CCCC[C@H](NC(=O)[C@H](CO)NC(=O)[C@H](Cc1ccc(O)cc1)NC(=O)[C@H](CO)NC(C)=O)C(=O)N[C@@H](CCC(=O)O)C(=O)N[C@@H](Cc1c[nH]cn1)C(=O)N[C@@H](C)C(=O)N[C@@H](CCCNC(=N)N)C(=O)N[C@@H](Cc1c[nH]c2ccccc12)C(=O)NCC(=O)N[C@@H](CCCCN)C(=O)N1CCC[C@H]1C(=O)N[C@H](C(N)=O)C(C)C [[Ala^7]NDP-MSH] | 260 ± 64 nM | 2350 fold | 180 fold | 2370 fold | 1080 fold | 
5 | CSCC[C@H](NC(=O)[C@H](CO)NC(=O)[C@H](Cc1ccc(O)cc1)NC(=O)[C@H](CO)NC(C)=O)C(=O)N[C@@H](CCC(=O)O)C(=O)N[C@@H](Cc1c[nH]cn1)C(=O)N[C@@H](Cc1ccccc1)C(=O)N[C@@H](CCCNC(=N)N)C(=O)N[C@@H](Cc1c[nH]c2ccccc12)C(=O)N[C@@H](C)C(=O)N[C@@H](CCCCN)C(=O)N1CCC[C@H]1C(=O)N[C@H](C(N)=O)C(C)C [[Ala^10]α-MSH] | 33 ± 11 nM |  |  |  |  | 
6 | CSCC[C@H](NC(=O)[C@H](CO)NC(=O)[C@H](Cc1ccc(O)cc1)NC(=O)[C@H](CO)NC(C)=O)C(=O)N[C@@H](CCC(=O)O)C(=O)N[C@@H](Cc1c[nH]cn1)C(=O)N[C@@H](Cc1ccccc1)C(=O)N[C@@H](CCCNC(=N)N)C(=O)N[C@@H](Cc1c[nH]c2ccccc12)C(=O)NCC(=O)N[C@@H](C)C(=O)N1CCC[C@H]1C(=O)N[C@H](C(N)=O)C(C)C [[Ala^11]α-MSH] | 49 ± 33 nM |  |  |  |  | 
7 | CCCC[C@H](NC(=O)[C@H](CO)NC(=O)[C@H](Cc1ccc(O)cc1)NC(=O)[C@H](CO)NC(C)=O)C(=O)N[C@@H](CCC(=O)O)C(=O)N[C@@H](Cc1c[nH]cn1)C(=O)N[C@H](Cc1ccccc1)C(=O)N[C@@H](CCCNC(=N)N)C(=O)N[C@@H](Cc1c[nH]c2ccccc12)C(=O)NCC(=O)N[C@@H](CCCCN)C(=O)N[C@@H](C)C(=O)N[C@H](C(N)=O)C(C)C [[Ala^12]NDP-MSH, Ac-Ser-Tyr-Ser-Nle-Glu-His-DPhe-Arg-Trp-Gly-Lys-Ala-Val-NH2] | 0.36 ± 0.06 nM | 4 fold |  | 5 fold |  | 
8 | CSCC[C@H](NC(=O)[C@H](CO)NC(=O)[C@H](Cc1ccc(O)cc1)NC(=O)[C@H](CO)NC(C)=O)C(=O)N[C@@H](CCC(=O)O)C(=O)N[C@@H](Cc1c[nH]cn1)C(=O)N[C@@H](Cc1ccccc1)C(=O)N[C@@H](CCCNC(=N)N)C(=O)N[C@@H](Cc1c[nH]c2ccccc12)C(=O)NCC(=O)N[C@@H](CCCCN)C(=O)N[C@@H](C)C(=O)N[C@H](C(N)=O)C(C)C [[Ala^12]α-MSH] | 43 ± 14 nM |  |  |  |  | fold decreased binding affinity at the mMC1R (mMC1R [3]): 10 fold
9 | CSCC[C@H](NC(=O)[C@H](CO)NC(=O)[C@H](Cc1ccc(O)cc1)NC(=O)[C@H](CO)NC(C)=O)C(=O)N[C@@H](CCC(=O)O)C(=O)N[C@@H](Cc1c[nH]cn1)C(=O)N[C@@H](Cc1ccccc1)C(=O)N[C@@H](CCCNC(=N)N)C(=O)N[C@@H](Cc1c[nH]c2ccccc12)C(=O)NCC(=O)N[C@@H](CCCCN)C(=O)N1CCC[C@H]1C(=O)N[C@@H](C)C(N)=O [[Ala^13]α-MSH] | 42 ± 26 nM |  |  |  |  | 

These reach a lower EC50 (mMC3R). Values come first.

Row | EC50 (mMC3R) | mMC1R fold difference (mMC1R [1]; [5]) | mMC5R fold difference (mMC5R; [5]) | mMC4R fold difference (mMC4R; [5]) | mMC3R fold difference (mMC3R) | SMILES | other results
10 | 0.16 ± 0.017 nM |  |  |  |  | CCCC[C@H](NC(=O)[C@H](CO)NC(=O)[C@H](Cc1ccc(O)cc1)NC(=O)[C@H](C)NC(C)=O)C(=O)N[C@@H](CCC(=O)O)C(=O)N[C@@H](Cc1c[nH]cn1)C(=O)N[C@H](Cc1ccccc1)C(=O)N[C@@H](CCCNC(=N)N)C(=O)N[C@@H](Cc1c[nH]c2ccccc12)C(=O)NCC(=O)N[C@@H](CCCCN)C(=O)N1CCC[C@H]1C(=O)N[C@H](C(N)=O)C(C)C [[Ala^1]NDP-MSH, Ac-Ala-Tyr-Ser-Nle-Glu-His-DPhe-Arg-Trp-Gly-Lys-Pro-Val-NH2] | 
11 | 0.22 ± 0.06 nM |  |  |  |  | CCCC[C@H](NC(=O)[C@H](CO)NC(=O)[C@H](C)NC(=O)[C@H](CO)NC(C)=O)C(=O)N[C@@H](CCC(=O)O)C(=O)N[C@@H](Cc1c[nH]cn1)C(=O)N[C@H](Cc1ccccc1)C(=O)N[C@@H](CCCNC(=N)N)C(=O)N[C@@H](Cc1c[nH]c2ccccc12)C(=O)NCC(=O)N[C@@H](CCCCN)C(=O)N1CCC[C@H]1C(=O)N[C@H](C(N)=O)C(C)C [[Ala^2]NDP-MSH, Ac-Ser-Ala-Ser-Nle-Glu-His-DPhe-Arg-Trp-Gly-Lys-Pro-Val-NH2] | 
12 | 0.34 ± 0.08 nM |  |  |  |  | CCCC[C@H](NC(=O)[C@H](C)NC(=O)[C@H](Cc1ccc(O)cc1)NC(=O)[C@H](CO)NC(C)=O)C(=O)N[C@@H](CCC(=O)O)C(=O)N[C@@H](Cc1c[nH]cn1)C(=O)N[C@H](Cc1ccccc1)C(=O)N[C@@H](CCCNC(=N)N)C(=O)N[C@@H](Cc1c[nH]c2ccccc12)C(=O)NCC(=O)N[C@@H](CCCCN)C(=O)N1CCC[C@H]1C(=O)N[C@H](C(N)=O)C(C)C [[Ala^3]NDP-MSH, Ac-Ser-Tyr-Ala-Nle-Glu-His-DPhe-Arg-Trp-Gly-Lys-Pro-Val-NH2] | 
13 | 0.13 ± 0.06 nM | unaltered | unaltered | unaltered | unaltered | CCCC[C@H](NC(=O)[C@H](CO)NC(=O)[C@H](Cc1ccc(O)cc1)NC(=O)[C@H](CO)NC(C)=O)C(=O)N[C@@H](CCC(=O)O)C(=O)N[C@@H](Cc1c[nH]cn1)C(=O)N[C@H](Cc1ccccc1)C(=O)N[C@@H](CCCNC(=N)N)C(=O)N[C@@H](Cc1c[nH]c2ccccc12)C(=O)N[C@@H](C)C(=O)N[C@@H](CCCCN)C(=O)N1CCC[C@H]1C(=O)N[C@H](C(N)=O)C(C)C [[Ala^10]NDP-MSH, Ac-Ser-Tyr-Ser-Nle-Glu-His-DPhe-Arg-Trp-Ala-Lys-Pro-Val-NH2] | 
14 | 0.17 ± 0.02 nM | unaltered | unaltered | unaltered | unaltered | CCCC[C@H](NC(=O)[C@H](CO)NC(=O)[C@H](Cc1ccc(O)cc1)NC(=O)[C@H](CO)NC(C)=O)C(=O)N[C@@H](CCC(=O)O)C(=O)N[C@@H](Cc1c[nH]cn1)C(=O)N[C@H](Cc1ccccc1)C(=O)N[C@@H](CCCNC(=N)N)C(=O)N[C@@H](Cc1c[nH]c2ccccc12)C(=O)NCC(=O)N[C@@H](C)C(=O)N1CCC[C@H]1C(=O)N[C@H](C(N)=O)C(C)C [[Ala^11]NDP-MSH, Ac-Ser-Tyr-Ser-Nle-Glu-His-DPhe-Arg-Trp-Gly-Ala-Pro-Val-NH2] | 
15 | 0.3 ± 0.06 nM | unaltered | unaltered | unaltered | unaltered | CCCC[C@H](NC(=O)[C@H](CO)NC(=O)[C@H](Cc1ccc(O)cc1)NC(=O)[C@H](CO)NC(C)=O)C(=O)N[C@@H](CCC(=O)O)C(=O)N[C@@H](Cc1c[nH]cn1)C(=O)N[C@H](Cc1ccccc1)C(=O)N[C@@H](CCCNC(=N)N)C(=O)N[C@@H](Cc1c[nH]c2ccccc12)C(=O)NCC(=O)N[C@@H](CCCCN)C(=O)N1CCC[C@H]1C(=O)N[C@@H](C)C(N)=O [[Ala^13]NDP-MSH, Ac-Ser-Tyr-Ser-Nle-Glu-His-DPhe-Arg-Trp-Gly-Lys-Pro-Ala-NH2] | 

From article PMC5596636 (ACS chemical neuroscience, 2016)
